Drawing on PubChem BioAssay (NCI), this text covers TGI and GI50 for 14 compounds.

Some test systems named below: DU-145 prostate; HOP-62 NSCLC; HOP-92 NSCLC; HS 578T breast; MDA-MB-231 breast; MDA-MB-435; MDA-N; NCI/ADR-RES ovarian; PC-3 prostate; RPMI-8226 leukemia; T-47D breast.
Common to all, as to assay: NCI-60 cell line screen, 48 h

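These data come from cells grown in 96-well plates and exposed to compound for 48 hours at five concentrations. GI50 marks 50% less growth. At the TGI there is no net growth.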

Consider `Cn1c(Sc2ccc(-c3cccnc3)n2C)ccc1-c1cccnc1`, for which the TGI with DU-145 prostate came out at 33.5 µM; with HOP-62 NSCLC, 36 µM; with HOP-92 NSCLC, 28.1 µM; in the experiment with HS 578T breast, 9.76 µM; with MDA-MB-231 breast it was 37.1 µM; with MDA-MB-435, 29.1 µM. Further, the TGI was determined as 25.3 µM in the experiment on MDA-N; 71.3 µM with NCI/ADR-RES ovarian; 31 µM with PC-3 prostate; 23.4 µM in the experiment on RPMI-8226 leukemia; 44.2 µM with T-47D breast.

Consider `NNc1ccccc1Cl`, for which the TGI in the experiment with DU-145 prostate, in the experiment on HOP-62 NSCLC, with HOP-92 NSCLC, in the experiment on HS 578T breast, in the experiment on MDA-MB-231 breast and with MDA-MB-435 was > 100 µM in each case. For the same compound, the TGI with MDA-N, with NCI/ADR-RES ovarian, in the experiment with PC-3 prostate, in the experiment on RPMI-8226 leukemia and with T-47D breast was > 100 µM throughout.

For the compound `Nc1nnc(N)n1NC(=O)C(=O)Nc1ccc([N+](=O)[O-])cc1`, the TGI in the experiment with HOP-62 NSCLC, in the experiment on HOP-92 NSCLC and in the experiment on RPMI-8226 leukemia was > 100 µM each time.

Take `COc1cc(S(=O)(=O)Nc2nc(-c3ccc(N)cc3)cs2)ccc1Cl`: the TGI in the experiment with DU-145 prostate, in the experiment with HOP-62 NSCLC, in the experiment on HOP-92 NSCLC, in the experiment with HS 578T breast, in the experiment with MDA-MB-231 breast and in the experiment on MDA-MB-435 was > 100 µM each time. Moreover, the TGI in the experiment on MDA-N, in the experiment on NCI/ADR-RES ovarian, in the experiment on PC-3 prostate and in the experiment on T-47D breast was > 100 µM throughout.

On to `COc1cc(O)c2c(c1)C(=O)c1cc(C)cc(O)c1C2=O`, for which the TGI with HOP-62 NSCLC and in the experiment on RPMI-8226 leukemia was > 100 µM each time.

`Cc1cc(=O)oc2c1cc(OCC(=O)OCCN1CCCCC1)c1occ(C)c12`: the TGI in the experiment with HOP-92 NSCLC and in the experiment on RPMI-8226 leukemia was > 100 µM in each case.

With `CO[C@@H]1C=C[C@@]23c4cc5c(cc4C(O)N(CC2O)C3C1)OCO5` (some centres undefined), the TGI was 50.7 µM in the experiment on DU-145 prostate; > 100 µM with HOP-62 NSCLC; 13.6 µM in the experiment with HOP-92 NSCLC; > 100 µM in the experiment with HS 578T breast; 21.8 µM with MDA-MB-231 breast; 18.2 µM in the experiment on MDA-MB-435. Also, the TGI in the experiment on MDA-N was 26.1 µM; in the experiment with NCI/ADR-RES ovarian, 75.1 µM; with PC-3 prostate, 17.5 µM; in the experiment on RPMI-8226 leukemia, > 100 µM; in the experiment with T-47D breast, 8.01 µM.

Turning to `COc1ccc(CC2c3cc(OC)c(OC)c(OC)c3CC[N+]2(C)C)cc1Oc1ccc(CC2c3cc4c(c(OC)c3CCN2C)OCO4)cc1` (centres undefined), the TGI in the experiment on DU-145 prostate, with HOP-92 NSCLC, in the experiment with HS 578T breast, in the experiment with MDA-MB-231 breast, in the experiment with MDA-MB-435 and with MDA-N was > 100 µM throughout. Also, the TGI in the experiment with NCI/ADR-RES ovarian, in the experiment with PC-3 prostate and in the experiment on T-47D breast was > 100 µM throughout.

In the case of `CC(C)=CCC[C@](C)(O[C@@H]1O[C@H](CO)[C@@H](O)[C@H](O)[C@H]1O)[C@H]1CC[C@]2(C)[C@@H]1[C@H](O)C[C@@H]1[C@@]3(C)CC[C@H](O)C(C)(C)[C@@H]3[C@@H](O[C@@H]3O[C@H](CO)[C@@H](O)[C@H](O)[C@H]3O)C[C@]12C`, the TGI in the experiment on DU-145 prostate, with HOP-62 NSCLC, in the experiment with HOP-92 NSCLC, in the experiment with HS 578T breast, in the experiment with MDA-MB-231 breast and with MDA-MB-435 was > 100 µM throughout. Moreover, the TGI with MDA-N, in the experiment on PC-3 prostate, with RPMI-8226 leukemia and in the experiment on T-47D breast was > 100 µM each time.

In the case of `O=C1C[C@@H](Sc2ccccc2)C2(OCCO2)[C@H]2ON3CCC[C@@H]3[C@@H]12`, the TGI with DU-145 prostate came to 6.07 µM; with HOP-62 NSCLC, 13.8 µM; in the experiment on HOP-92 NSCLC, 11.4 µM; in the experiment with HS 578T breast, 13.1 µM; in the experiment with MDA-MB-231 breast it was 7.67 µM; with MDA-MB-435, 10 µM. In addition, the TGI with MDA-N amounted to 6.97 µM; in the experiment with NCI/ADR-RES ovarian, 31.2 µM; in the experiment with PC-3 prostate, 20.6 µM; in the experiment with RPMI-8226 leukemia, 8.94 µM; in the experiment on T-47D breast, 8.75 µM.

For the compound `Fc1ccc(-c2nnc3sc(COc4ccccc4Cl)nn23)cc1Cl`, the GI50 is 29.8 µM in the experiment on DU-145 prostate; 49.5 µM with HOP-62 NSCLC; 30.4 µM with HOP-92 NSCLC; 35.2 µM in the experiment with HS 578T breast; 44.5 µM with MDA-MB-231 breast; 49.5 µM with MDA-MB-435. Besides, the GI50 was 40.8 µM in the experiment with NCI/ADR-RES ovarian, 30.7 µM in the experiment on PC-3 prostate and 32.8 µM with T-47D breast. Further, the TGI is > 100 µM in the experiment with DU-145 prostate; > 100 µM in the experiment on HOP-62 NSCLC; > 100 µM in the experiment with HOP-92 NSCLC; 91.6 µM in the experiment with HS 578T breast; > 100 µM with MDA-MB-231 breast; > 100 µM with MDA-MB-435. Besides, the TGI in the experiment with NCI/ADR-RES ovarian, in the experiment with PC-3 prostate and with T-47D breast was > 100 µM throughout.

As for `O=C(O)C1=NNC(C(=O)O)=NN1`, the TGI in the experiment with HOP-92 NSCLC and with RPMI-8226 leukemia was > 100 µM in each case.

`COc1ccc([C@H]2C=C(c3cc(F)c(Cl)cc3Cl)NC(=S)N2)cc1`: the TGI is > 100 µM in the experiment with DU-145 prostate; > 100 µM in the experiment with HOP-62 NSCLC; > 100 µM in the experiment with HOP-92 NSCLC; > 100 µM with HS 578T breast; > 100 µM with MDA-MB-231 breast; 56.4 µM with MDA-MB-435. The TGI in the experiment with MDA-N was 33.2 µM; in the experiment with NCI/ADR-RES ovarian it was > 100 µM; in the experiment on PC-3 prostate, 65.7 µM; in the experiment on RPMI-8226 leukemia it was 76 µM; in the experiment on T-47D breast it was > 100 µM.

As to `NC(=O)Nc1cc(O)ccc1N=Nc1ccc(S(=O)(=O)Nc2ccccn2)cc1`, the TGI in the experiment on HOP-62 NSCLC, with HOP-92 NSCLC and in the experiment on RPMI-8226 leukemia was > 100 µM throughout.
